According to article PMC6049614 (Chemical Communications (Cambridge, England), 2018):
Where a SMILES comes first, the peptide text is derived from it. Bridges are numbered along the chain shown (N, C = ends). [ ]: non-standard residue; d: D form. The star is where a group is joined. X1 = O=C(O)CN1CCN(CC(=O)O)CCN(Cc2ccc(CC(=O)*)cc2)CC1; Mpa = O=C(O)CCS

How the values were obtained:
[1] = biological target: T1, OTR in rat brain slices (Rattus norvegicus, UniProt P70536); test: Rat brain autoradiography, specific binding; details: 3 nM tracer, nonspecific with 10 μM OT, rat brain sagittal slices
T1 construct: from tissue; host or cells: sagittal brain sections of male Wistar rats
T1 sequence (P70536 1-388): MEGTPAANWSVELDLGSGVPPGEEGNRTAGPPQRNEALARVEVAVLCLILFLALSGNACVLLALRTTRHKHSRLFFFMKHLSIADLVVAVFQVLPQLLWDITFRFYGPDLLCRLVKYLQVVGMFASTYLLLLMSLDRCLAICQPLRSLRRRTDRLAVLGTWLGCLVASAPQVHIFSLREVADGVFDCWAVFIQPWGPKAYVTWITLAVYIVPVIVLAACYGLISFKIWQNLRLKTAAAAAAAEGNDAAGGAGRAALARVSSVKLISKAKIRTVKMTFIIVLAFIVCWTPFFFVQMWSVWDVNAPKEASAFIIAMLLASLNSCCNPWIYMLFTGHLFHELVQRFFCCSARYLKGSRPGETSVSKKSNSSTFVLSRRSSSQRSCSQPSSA
Method: (§1) To justify use of [Al^18F]NODA-dLVT in vivo, tracer lipophilicity and specific binding were determined through a standard shake flask assay and rat brain autoradiography, respectively. A log D7.4 of –0.54 ± 0.1 was established for [Al^18F]NODA-dLVT indicating a hydrophilic profile and potential for low non-specific binding. To investigate the feasibility of [Al^18F]NODA-dLVT for nervous system imaging, tracer was incubated at a concentration of 3 nM, either alone or in the presence of excess OT (10 μM) with brain tissue cut in the sagittal plane to determine total vs. non-specific binding (Fig. 3). This enabled calculation of % specific binding of [Al^18F]NODA-dLVT to regions of brain tissue (ESI, ^† Section 4.2). [^18F]AlF-NODA-dLVT specifically bound regions known to express appreciable levels of OTR (Fig. 3),[23]–[26] including hippocampus (CA1: 53 ± 4%; subiculum, S: 60 ± 1%), central amygdala nucleus (ac: 56 ± 1%), olfactory systems (olfactory tubercle, Tu: 53 ± 5%; anterior olfactory nucleus, AO: 38 ± 2%), acumens nuclei (Acb: 43 ± 4%), and cortical regions (visual cortex, V1: 61 ± 4%; motor cortex, MC: 42 ± 4%).
Fig. 3 Specific binding profile of [^18F]AlF-NODA-dLVT. Radiograms of total (top; 3 nM [^18F]AlF-NODA-dLVT) and nonspecific binding (bottom; 3 nM [^18F]AlF-NODA-dLVT and 10 μM OT) of [^18F]AlF-NODA-dLVT to rat brain slices in the sagittal pane. Areas with high specific binding are indicated on the figure with arrow heads. Key: AO = anterior olfactory nucleus; CA1 = field CA1 of the hippocampus; Acb = accumbens nuclei; Tu = olfactory tubercle; VMH = ventromedial hypothalamic nuclei; MC = motor cortex; V1 = primary visual cortex; S = subiculum; ac = central amygdala nucleus; lo = lateral olfactory tract. […]
was 84 ± 2%. After 30 min 18F yields remained at 84 ± 3%.
4.1 Tissue Preparation for rat brain autoradiography
Male Wistar rats (250 g; n=3) were stunned then decapitated. Brains were rapidly removed, incubated in 20% sucrose solution for 2 h, and immediately frozen (-80 °C). Tissues were stored at -80 °C until required. Rat brains were sectioned in the sagittal plane (20 µm thickness; according to the atlas of Paxinos and Watson, 1998). Tissues were cut using a cryostat microtome (CM3050S, Leica, UK), and thaw-mounted onto glass microscope slides. Slides were stored at -80 °C until use.
4.2 Autoradiography Procedure
Tissue was thawed to room temperature, dried then washed with ice cold buffer (50 mM Tris, pH 7.4). Sections were air dried and incubated for 1 h at room temperature with [18F]AlF-NODA-dLVT (3 nM) in buffer (50 mM Tris pH 7.4, 10 mM MgCl2). For nonspecific binding, OT (10 µM) was co-incubated with [18F]AlF-NODA-dLVT (3 nM) over the duration of the experiment. After incubation, slides were washed with ice-cold buffer (2 min × 2), followed by a final wash in ice-cold distilled water (2 min). Slides were dried in a cool airstream then exposed to 18F sensitive phosphor screens (Amersham, UK) with [18F]AlF-NODA-dLVT standards in X-ray cassettes overnight. Phosphor screens were imaged using a Typhoon 8600 scanner (Molecular Dynamics) and images were analysed with OptiQuant 5.0 (Perkin Elmer) and FIJI. Values were converted to relative binding percentages using calibrated [18F]AlF-NODA-dLVT standards. Binding potential (BP) is defined as the binding of tracer in brain region/total activity incubated as determined by the standard. Specific binding in each region is calculated by comparing the total and non-specific BP by the equation: ((total BP – non-specific BP)/total BP) × 100.

[2] = in vivo; details: rat; for tissue uptake at 0.5 h / tissue uptake at 10 min: female, Wistar, in vivo, total radioactivity; for tissue uptake at 0.5 h: inhaled or intranasal
Method: To investigate the plausibility of i.n. administration for OT-like therapies, given the similar structure and hydrophilic profile between AlF-NODA-dLVT and OT, in vivo tissue distribution of [^18F]AlF-NODA-dLVT was determined following i.n. or i.v. administration. […]. Here, it is anticipated that both routes show independent kinetic and metabolic profiles and the extended apparent availability of OT following i.n. administration supports a longer timeframe for this study.[27],[28] Distribution was determined through gamma counting of radioactivity in isolated tissue. A large portion underwent excretion via kidneys (i.v. 4.6 ± 0.4%ID per g; i.n. 1.31 ± 0.7%ID per g) and urine (i.v. 2.5 ± 1.2%ID per g; i.n. 7.7 ± 2.2%ID per g), as expected from the hydrophilic character of the tracer, similar to previous results found with radiolabelled OT given i.v. (Fig. 4A).[29]
Fig. 4 Biodistribution of [^18F]AlF-NODA-dLVT in rat. […] Both are shown relative to blood levels following either i.n. (30 min) or i.v. (10 min) administration. Each data point corresponds to mean ± SD, n = 3.
All animal experiments were performed in accordance to the Animals (Scientific Procedures) Act 1986 and were approved by the King’s college London ethical review committee. The work was performed under PPL 70/8230 (Reza Rezavi). Adult female Wistar rats (220 ± 4.5 g) were group housed at 21 ± 1 °C in a 12 h light:dark cycle with ad libitum access to standard rat chow and water. [18F]AlF-NODA-dLVT was formulated in 0.9% saline to contain no more than 5% MeOH. Female Wistar rats received a dose of [18F]AlF-NODA-dLVT by tail vein injection (up to 650 μL in volume), or via nasal administration using a syringe with a plastic cannula attached to one nostril (25 μL per nare).
A 0.3 mL insulin syringe, containing a 29-gauge needle, was fitted with a PE10 cannula (15 mm). The cannula was fitted so that it covered approximately 3 mm of the needle tip.
Radioligand was added to the syringe and the activity measured before and after administration to calculate the injected dose (ID). Anesthesia was induced using a mixture of 5% isoflurane and oxygen (Animalcare, UK) at a flow rate of 1 L/min and maintained at 2.5% isoflurane.
Once unresponsive, the rat was held in an almost vertical position and radioactivity was administered through one nare at the back of the nasal cavity.
Rats were sacrificed by removal of the heart under isoflurane anaesthesia at 10 min following tail vein injection or 30 min following i.n. administration. Major organs were excised, washed with saline, weighed and counted in a gamma counter (LKB Wallac 1282), together with standards of the injection mixture. Organ uptake was calculated as percentage injected dose per gram [%ID/g] of tissue mass. Data are reported as mean ± SD.

[3] = physchem; assay type: physicochemical; details: pH 7.4
Method: as §1

[4] = parameters: method as in PMID 693485; details: following i.v. injection; cited from earlier work

| % specific binding, acumens nuclei (Acb) [1] [%] | % specific binding, anterior olfactory nucleus (AO) [1] [%] | % specific binding, central amygdala nucleus (ac) [1] [%] | % specific binding, hippocampus CA1 [1] [%] | % specific binding, motor cortex (MC) [1] [%] | % specific binding, olfactory tubercle (Tu) [1] [%] | % specific binding, subiculum (S) [1] [%] | % specific binding, visual cortex (V1) [1] [%] | tissue uptake at 0.5 h ([2]; uptake in brain parenchyma) [%ID/g] | tissue uptake at 0.5 h ([2]; uptake in cerebellum) [%ID/g] | tissue uptake at 0.5 h ([2]; uptake in kidneys) [%ID/g] | tissue uptake at 0.5 h ([2]; uptake in olfactory bulb) [%ID/g] | tissue uptake at 10 min ([2]; iv, uptake in brain parenchyma) [%ID/g] | tissue uptake at 10 min ([2]; iv, uptake in cerebellum) [%ID/g] | tissue uptake at 10 min ([2]; iv, uptake in kidneys) [%ID/g] | tissue uptake at 10 min ([2]; iv, uptake in olfactory bulb) [%ID/g] | brain permeable material ([2]; iv) | logD [3] | Compound | plasma half-life [4] |
| --- | --- | --- | --- | --- | --- | --- | --- | --- | --- | --- | --- | --- | --- | --- | --- | --- | --- | --- | --- |
| 43 ± 4 | 38 ± 2 | 56 ± 1 | 53 ± 4 | 42 ± 4 | 53 ± 5 | 60 ± 1 | 61 ± 4 | 0.11 ± 0.03 | 0.31 ± 0.26 | 1.31 ± 0.7 | 2.3 ± 1.8 | 0.05 ± 0.03 | 0.05 ± 0.01 | 4.6 ± 0.4 | 0.05 ± 0.02 | approximately 4.7 × 10^–2 %ID per g | -0.54 | CC[C@H](C)[C@@H]1NC(=O)[C@H](Cc2ccc(O)cc2)NC(=O)CCSSC[C@@H](C(=O)N2CCC[C@H]2C(=O)N[C@@H](CCCCNC(=O)Cc2ccc(CN3CCN(CC(=O)O)CCN(CC(=O)O)CC3)cc2)C(=O)NCC(N)=O)NC(=O)[C@H](CC(N)=O)NC(=O)[C@H](CCC(N)=O)NC1=O [[^18F]AlF-NODA-dLVT] ([Mpa]YIQNCPK(X1)G-NH2; disulfide 1-6) | – |
| – | – | – | – | – | – | – | – | – | – | – | – | – | – | – | – | – | – | CC[C@H](C)[C@@H]1NC(=O)[C@H](Cc2ccc(O)cc2)NC(=O)[C@@H](N)CSSC[C@@H](C(=O)N2CCC[C@H]2C(=O)N[C@@H](CC(C)C)C(=O)NCC(N)=O)NC(=O)[C@H](CC(N)=O)NC(=O)[C@H](CCC(N)=O)NC1=O [OTc, oxytocin] | approximately 3 min |
